From article PMC4270692, “Using a Non-Image-Based Medium-Throughput Assay for Screening Compounds Targeting N-myristoylation in Intracellular Leishmania Amastigotes” (PLoS Neglected Tropical Diseases, 2014)
Entries after “also recorded” stand apart in the source; their conditions may differ. Where two headings read alike, the source gives them in different places.

How the values were obtained:
[1] = system: extracellular L. donovani amastigotes; experiment: Extracellular assay on amastigotes freshly isolated from mouse spleens, 72 h at 26°C, Alamar blue; format: cell-based, Leishmania donovani; conditions: for EC50: Leishmania donovani; for Cellular (leishmanicidal) activity in words: extracellular assay
[2] = system: intracellular L. donovani amastigotes; experiment: Intracellular amastigote assay: infected macrophages treated 72 h, saponin lysis, transformation to promastigotes, Alamar blue; format: cell-based, Leishmania donovani; conditions: for EC50: Leishmania donovani, Macrophage; for Effect on intracellular amastigotes at the highest concentration tested: 45 µM, after an "activity valley" at 15 µM
[3] = system: bone marrow derived macrophages
L. donovani NMT = L. donovani NMT (Leishmania donovani, UniProt D0AB09); experiment: biochemical; format: biochemical
L. donovani NMT, sequence (D0AB09 1-421): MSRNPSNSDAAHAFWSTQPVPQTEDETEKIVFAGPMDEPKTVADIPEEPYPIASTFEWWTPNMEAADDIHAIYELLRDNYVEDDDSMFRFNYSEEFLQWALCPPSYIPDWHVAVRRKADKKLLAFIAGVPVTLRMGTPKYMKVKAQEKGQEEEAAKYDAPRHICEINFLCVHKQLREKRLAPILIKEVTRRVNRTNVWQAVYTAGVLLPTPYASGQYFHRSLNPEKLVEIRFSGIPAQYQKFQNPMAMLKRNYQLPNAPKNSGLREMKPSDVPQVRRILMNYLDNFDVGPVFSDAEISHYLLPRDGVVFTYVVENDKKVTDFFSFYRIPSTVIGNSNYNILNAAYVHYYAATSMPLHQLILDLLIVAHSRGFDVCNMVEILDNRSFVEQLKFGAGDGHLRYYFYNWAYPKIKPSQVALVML

[4] = 72 h, 3-day treatment, splenic amastigotes from Rag2−/− mice, incubation at 26°C, read-out: EC50 ± SD extracellular L. donovani amastigotes
[5] = 72 h, 3-day treatment of infected bone marrow derived macrophages, mean of biological repeats, read-out: EC50 ± SD intracellular L. donovani amastigotes
[6] = Figure 3, representative dose response curve, 72 h incubation, read-out: EC50 intracellular L. donovani amastigotes, representative plot
[7] = 72 h, read-out: EC50 extracellular L. donovani amastigotes
[8] = NMT inhibitors, 72 h in infected macrophages, n.p. = not possible
[9] = NMT inhibitors, 72 h at 26°C, read-out: EC50 extracellular L. donovani amastigotes

## C[C@@H]1[C@H](O)[C@@H](C)/C=C/C=C/C=C/C=C/C=C/C=C/C=C/[C@H](O[C@@H]2O[C@H](C)[C@@H](O)[C@H](N)[C@@H]2O)C[C@@H]2O[C@](O)(C[C@@H](O)C[C@@H](O)[C@H](O)CC[C@@H](O)C[C@@H](O)CC(=O)O[C@H]1C)C[C@H](O)[C@H]2C(=O)O [Amphotericin B, amphotericin B]
[1]; [4]
  EC50: 50 ± 11 nM
[2]; [5]
  EC50: 30 ± 9 nM
[2]; [6]
  EC50: 29 nM

## Cc1nn(C)c(C)c1NS(=O)(=O)c1c(Cl)cc(-c2ccnc(N3CCNCC3)c2)cc1Cl [DDD85646]
[1]; [7]
  EC50: 8000 nM
[3]; 72 h
  LD50 bone marrow derived macrophages: >45 µM
[2]
  Effect on intracellular amastigotes at the highest concentration tested: complete killing of the parasites; also recorded: all amastigotes cleared from the macrophages
[2]; [8]
  EC50 intracellular L. donovani amastigotes: n.p.

## Cc1nn(C)c(C)c1NS(=O)(=O)c1c(Cl)cc(-c2ccnc(N3CCN(C)CC3)c2)cc1Cl [DDD86211]
[1]; [9]
  EC50: 180 nM
[3]; female, BALB/c, mouse, 72 h
  LD50 bone marrow derived macrophages: >45 µM
[2]
  Effect on intracellular amastigotes at the highest concentration tested: complete killing of the parasites; also recorded: all amastigotes cleared from the macrophages
[2]; [8]
  EC50 intracellular L. donovani amastigotes: n.p.

## Cc1nn(C)c(C)c1N(C(F)F)[S+](=O)([O-])c1c(Cl)cc(-c2ccnc(N3CCNCC3)c2)cc1Cl [DDD100887]
[1]; [9]
  EC50: 660 nM
[3]; female, BALB/c, mouse, 72 h
  LD50 bone marrow derived macrophages: 23 µM
[2]; NMT inhibitors, 72 h in infected macrophages, n.p. = not possible, read-out: EC50 intracellular L. donovani amastigotes
  EC50: 190 nM

## CN1CCC(N(C)c2nc(N(C)CCC#N)c3sccc3n2)CC1 [IMP-0000083]
[1]; [9]
  EC50: 24000 nM
[1]
  Cellular (leishmanicidal) activity in words: moderate cellular activity
[3]
  Host cell toxicity (in words): no toxicity to host cells
[3]; 72 h
  LD50 bone marrow derived macrophages: >45 µM
[3]; female, BALB/c, mouse, 72 h
  Concentration up to which no host cell cytotoxicity was seen: at least 45 µM
[2]
  Activity in the intracellular assay (in words): no activity
L. donovani NMT
  IC50: 281 nM
L. donovani NMT; relative to IMP-0000195
  Fold less potent in inhibition of LdNMT than IMP-0000195: ~4 fold

## N[C@@H](CC(=O)N1C[C@H](CO)[C@@H](c2ccc(Cl)cc2)C1)Cc1ccc(Cl)cc1 [IMP-0000195]
[1]; [9]
  EC50: 12000 nM
[3]; female, BALB/c, mouse, 72 h
  LD50 bone marrow derived macrophages: 12 µM
[3]; macrophages
  Host cell toxicity (in words): equally toxic to macrophages; also recorded: host cell toxicity and no selectivity
L. donovani NMT; read-out: IC50 L. donovani NMT
  IC50: 76.5 nM

## c1cncc(CCNCc2cccc(-c3cccc(CN4CCc5ncsc5C4)c3)c2)c1 [IMP-0000197]
[1]; [9]
  EC50: 16000 nM
[1]
  Cellular (leishmanicidal) activity in words: moderate cellular activity
[3]
  Concentration up to which no host cell cytotoxicity was seen: at least 45 µM
[3]; female, BALB/c, mouse, 72 h
  LD50 bone marrow derived macrophages: 50 µM
[2]
  Activity in the intracellular assay (in words): no activity

## O=C(Cc1ccc(F)cc1)Nc1ccc2[nH]cc(C3CCNCC3)c2c1 [IMP-0000556]
[1]; [7]
  EC50: > 30000 nM
[1]
  Cellular (leishmanicidal) activity in words: did not result in any leishmanicidal activity
[3]; female, BALB/c, mouse, 72 h
  LD50 bone marrow derived macrophages: >45 µM

## CCCCCCCCCCCCCCCCOP(=O)([O-])OCC[N+](C)(C)C [Miltefosine, miltefosine]
[1]; [4]
  EC50: 7850 ± 500 nM
[2]; [5]
  EC50: 1380 ± 60 nM
[2]; [6]
  EC50: 1450 nM
